≈ marks a conversion by molar mass, not a printed value.
What was measured:
Assay type in all cases: functional
Enterococcus faecalis [1] = assay: Antibacterial activity against multidrug resistant Enterococcus faecalis ATCC 51299
Staphylococcus aureus [2] = assay: Antibacterial activity against methicillin resistant Staphylococcus aureus clinical isolate 003
Staphylococcus aureus [3] = assay: Antibacterial activity against methicillin resistant Staphylococcus aureus clinical isolate 011
Staphylococcus aureus [4] = assay: Antibacterial activity against methicillin resistant Staphylococcus aureus clinical isolate 031
Enterococcus faecalis [5] = assay: Antibacterial activity against Enterococcus faecalis clinical isolate 7
Enterococcus faecalis [6] = assay: Antibacterial activity against Enterococcus faecalis clinical isolate 13
Staphylococcus aureus [7] = assay: Antibacterial activity against Staphylococcus aureus clinical isolate 31
Staphylococcus aureus [8] = assay: Antibacterial activity against Staphylococcus aureus clinical isolate 29

CCCCCCCCCCc1c(-c2ccc(O)cc2O)oc2cc(OC)cc(O)c2c1=O
MIC (Enterococcus faecalis [1]): 16 µg/mL (≈ 36.3 µM) | MIC (Staphylococcus aureus [2]): 16 µg/mL (≈ 36.3 µM)

COc1ccc(-c2oc3cc(OC)cc(OC)c3c(=O)c2CCCCc2ccccc2)c(OC)c1
MIC (Enterococcus faecalis [1]): > 64 µg/mL | MIC (Staphylococcus aureus [2]): > 64 µg/mL

CC(C)=CCc1c(-c2ccc(O)cc2O)oc2c3c(cc(O)c2c1=O)OC(C)(C)C=C3 [MORUSIN]
MIC (Enterococcus faecalis [1]): 5 µg/mL (≈ 11.9 µM) | MIC (Staphylococcus aureus [2]): 5 µg/mL (≈ 11.9 µM)

CCCCCCc1c(-c2ccc(OCCCCNCc3ccc(Cl)cc3)cc2OCCCCNCc2ccc(Cl)cc2)oc2cc(OC)cc(O)c2c1=O
MIC (Staphylococcus aureus [3]): 16 µg/mL (≈ 20.6 µM) | MIC (Enterococcus faecalis [1]): 32 µg/mL (≈ 41.2 µM) | MIC (Staphylococcus aureus [4]): 32 µg/mL (≈ 41.2 µM) | MIC (Enterococcus faecalis [5]): 32 µg/mL (≈ 41.2 µM) | MIC (Enterococcus faecalis [6]): 32 µg/mL (≈ 41.2 µM) | MIC (Staphylococcus aureus [2]): 32 µg/mL (≈ 41.2 µM) | MIC (Staphylococcus aureus [7]): 16 µg/mL (≈ 20.6 µM) | MIC (Staphylococcus aureus [8]): 32 µg/mL (≈ 41.2 µM)

CC(C)=CCc1c(O)ccc(C(=O)[C@@H]2[C@@H](c3ccc(O)cc3O)CC(C)=C[C@H]2c2c(O)cc(O)c3c(=O)c(CC=C(C)C)c(-c4ccc(O)cc4O)oc23)c1O
MIC (Enterococcus faecalis [1]): 5 µg/mL (≈ 6.57 µM) | MIC (Staphylococcus aureus [2]): 2.5 µg/mL (≈ 3.29 µM)

CC(C)=CCCC1=C[C@@H](c2c(O)cc3oc(-c4ccc(O)cc4O)cc(=O)c3c2O)[C@H](C(=O)c2ccc(O)cc2O)[C@@H](c2ccc(O)cc2O)C1
MIC (Enterococcus faecalis [1]): 10 µg/mL (≈ 14.4 µM) | MIC (Staphylococcus aureus [2]): 5 µg/mL (≈ 7.22 µM)

CC(C)=CCCc1c(-c2ccc(O)cc2O)oc2cc(O)cc(O)c2c1=O
MIC (Enterococcus faecalis [1]): 32 µg/mL (≈ 86.9 µM) | MIC (Staphylococcus aureus [2]): 32 µg/mL (≈ 86.9 µM)

COc1ccc(-c2cc(=O)c3c(OC)cc(OC)cc3o2)c(OC)c1
MIC (Enterococcus faecalis [1]): > 64 µg/mL | MIC (Staphylococcus aureus [2]): > 64 µg/mL

CCCCCCCCc1c(-c2ccc(O)cc2O)oc2cc(O)cc(O)c2c1=O
MIC (Enterococcus faecalis [1]): 16 µg/mL (≈ 40.2 µM) | MIC (Staphylococcus aureus [2]): 16 µg/mL (≈ 40.2 µM)

CCCCCCc1c(-c2ccc(OCCCCNCc3ccco3)cc2OCCCCNCc2ccco2)oc2cc(OC)cc(O)c2c1=O
MIC (Staphylococcus aureus [3]): 2 µg/mL (≈ 2.91 µM) | MIC (Enterococcus faecalis [1]): 4 µg/mL (≈ 5.82 µM) | MIC (Staphylococcus aureus [4]): 4 µg/mL (≈ 5.82 µM) | MIC (Enterococcus faecalis [5]): 4 µg/mL (≈ 5.82 µM) | MIC (Enterococcus faecalis [6]): 2 µg/mL (≈ 2.91 µM) | MIC (Staphylococcus aureus [2]): 2 µg/mL (≈ 2.91 µM) | MIC (Staphylococcus aureus [7]): 4 µg/mL (≈ 5.82 µM) | MIC (Staphylococcus aureus [8]): 2 µg/mL (≈ 2.91 µM)

CC(C)=CCC/C(C)=C/CCCc1c(-c2ccc(O)cc2O)oc2cc(O)cc(O)c2c1=O
MIC (Enterococcus faecalis [1]): > 64 µg/mL | MIC (Staphylococcus aureus [2]): 32 µg/mL (≈ 71 µM)

COc1cc(O)c2c(=O)cc(-c3ccc(O)cc3O)oc2c1 [ARTOCARPETIN]
MIC (Enterococcus faecalis [1]): > 64 µg/mL | MIC (Staphylococcus aureus [2]): > 64 µg/mL

CCCCCCc1c(-c2ccc(OCC(=O)CN[C@H](CCCNC(=N)N)C(N)=O)cc2OCC(=O)CN[C@H](CCCNC(=N)N)C(N)=O)oc2cc(OC)cc(O)c2c1=O
MIC (Staphylococcus aureus [3]): 32 µg/mL (≈ 38.1 µM) | MIC (Enterococcus faecalis [1]): > 64 µg/mL | MIC (Staphylococcus aureus [4]): 8 µg/mL (≈ 9.54 µM) | MIC (Enterococcus faecalis [5]): > 64 µg/mL | MIC (Enterococcus faecalis [6]): > 64 µg/mL | MIC (Staphylococcus aureus [2]): 8 µg/mL (≈ 9.54 µM) | MIC (Staphylococcus aureus [7]): 8 µg/mL (≈ 9.54 µM) | MIC (Staphylococcus aureus [8]): 32 µg/mL (≈ 38.1 µM)

CCCCCCc1c(-c2ccc(OCCCCNCc3ccc(Br)cc3)cc2OCCCCNCc2ccc(Br)cc2)oc2cc(OC)cc(O)c2c1=O
MIC (Staphylococcus aureus [3]): 64 µg/mL (≈ 74 µM) | MIC (Enterococcus faecalis [1]): > 64 µg/mL | MIC (Enterococcus faecalis [5]): > 64 µg/mL | MIC (Enterococcus faecalis [6]): > 64 µg/mL | MIC (Staphylococcus aureus [2]): 64 µg/mL (≈ 74 µM) | MIC (Staphylococcus aureus [7]): 64 µg/mL (≈ 74 µM) | MIC (Staphylococcus aureus [8]): > 64 µg/mL

CCCCCCCCCCCCCCCCc1c(-c2ccc(O)cc2O)oc2cc(O)cc(O)c2c1=O
MIC (Enterococcus faecalis [1]): > 64 µg/mL | MIC (Staphylococcus aureus [2]): > 64 µg/mL

CCCCCCCCc1c(-c2ccc(O)cc2O)oc2cc(OC)cc(O)c2c1=O
MIC (Enterococcus faecalis [1]): 16 µg/mL (≈ 38.8 µM) | MIC (Staphylococcus aureus [2]): 8 µg/mL (≈ 19.4 µM)

C=CCc1c(-c2ccc(OC)cc2OC)oc2cc(OC)cc(OC)c2c1=O
MIC (Enterococcus faecalis [1]): > 64 µg/mL | MIC (Staphylococcus aureus [2]): > 64 µg/mL

CCCc1c(-c2ccc(O)cc2O)oc2cc(OC)cc(O)c2c1=O
MIC (Enterococcus faecalis [1]): 64 µg/mL (≈ 187 µM) | MIC (Staphylococcus aureus [2]): 32 µg/mL (≈ 93.5 µM)

CCCCc1c(-c2ccc(OC)cc2OC)oc2cc(OC)cc(OC)c2c1=O
MIC (Enterococcus faecalis [1]): > 64 µg/mL | MIC (Staphylococcus aureus [2]): > 64 µg/mL

CCCCc1c(-c2ccc(O)cc2O)oc2cc(OC)cc(O)c2c1=O
MIC (Enterococcus faecalis [1]): 32 µg/mL (≈ 89.8 µM) | MIC (Staphylococcus aureus [2]): 16 µg/mL (≈ 44.9 µM)

O=c1cc(-c2ccc(O)cc2O)oc2cc(O)cc(O)c12 [NORARTOCARPETIN]
MIC (Enterococcus faecalis [1]): > 64 µg/mL | MIC (Staphylococcus aureus [2]): > 64 µg/mL

C=CCc1c(-c2ccc(O)cc2O)oc2cc(OC)cc(O)c2c1=O
MIC (Enterococcus faecalis [1]): 64 µg/mL (≈ 188 µM) | MIC (Staphylococcus aureus [2]): 32 µg/mL (≈ 94 µM)

CCCc1c(-c2ccc(O)cc2O)oc2cc(O)cc(O)c2c1=O
MIC (Enterococcus faecalis [1]): > 64 µg/mL | MIC (Staphylococcus aureus [2]): 64 µg/mL (≈ 195 µM)

CCCCCCCCc1c(-c2ccc(OC)cc2OC)oc2cc(OC)cc(OC)c2c1=O
MIC (Enterococcus faecalis [1]): > 64 µg/mL | MIC (Staphylococcus aureus [2]): > 64 µg/mL

CCCCCc1c(-c2ccc(O)cc2O)oc2cc(OC)cc(O)c2c1=O
MIC (Enterococcus faecalis [1]): 16 µg/mL (≈ 43.2 µM) | MIC (Staphylococcus aureus [2]): 8 µg/mL (≈ 21.6 µM)

— ChEMBL document CHEMBL5512659, “Structure optimizing of flavonoids against both MRSA and VRE” (Eur J Med Chem, 2024)
